We go through 18 molecules from patent US12540131B2 (Merck Sharp & Dohme LLC, priority 2019, dated 2026).

Bounds are passed on as bounds.

Chain of GST tagged truncated human mutant G2019S LRRK2 (Q5S007 970-2527 G2019S): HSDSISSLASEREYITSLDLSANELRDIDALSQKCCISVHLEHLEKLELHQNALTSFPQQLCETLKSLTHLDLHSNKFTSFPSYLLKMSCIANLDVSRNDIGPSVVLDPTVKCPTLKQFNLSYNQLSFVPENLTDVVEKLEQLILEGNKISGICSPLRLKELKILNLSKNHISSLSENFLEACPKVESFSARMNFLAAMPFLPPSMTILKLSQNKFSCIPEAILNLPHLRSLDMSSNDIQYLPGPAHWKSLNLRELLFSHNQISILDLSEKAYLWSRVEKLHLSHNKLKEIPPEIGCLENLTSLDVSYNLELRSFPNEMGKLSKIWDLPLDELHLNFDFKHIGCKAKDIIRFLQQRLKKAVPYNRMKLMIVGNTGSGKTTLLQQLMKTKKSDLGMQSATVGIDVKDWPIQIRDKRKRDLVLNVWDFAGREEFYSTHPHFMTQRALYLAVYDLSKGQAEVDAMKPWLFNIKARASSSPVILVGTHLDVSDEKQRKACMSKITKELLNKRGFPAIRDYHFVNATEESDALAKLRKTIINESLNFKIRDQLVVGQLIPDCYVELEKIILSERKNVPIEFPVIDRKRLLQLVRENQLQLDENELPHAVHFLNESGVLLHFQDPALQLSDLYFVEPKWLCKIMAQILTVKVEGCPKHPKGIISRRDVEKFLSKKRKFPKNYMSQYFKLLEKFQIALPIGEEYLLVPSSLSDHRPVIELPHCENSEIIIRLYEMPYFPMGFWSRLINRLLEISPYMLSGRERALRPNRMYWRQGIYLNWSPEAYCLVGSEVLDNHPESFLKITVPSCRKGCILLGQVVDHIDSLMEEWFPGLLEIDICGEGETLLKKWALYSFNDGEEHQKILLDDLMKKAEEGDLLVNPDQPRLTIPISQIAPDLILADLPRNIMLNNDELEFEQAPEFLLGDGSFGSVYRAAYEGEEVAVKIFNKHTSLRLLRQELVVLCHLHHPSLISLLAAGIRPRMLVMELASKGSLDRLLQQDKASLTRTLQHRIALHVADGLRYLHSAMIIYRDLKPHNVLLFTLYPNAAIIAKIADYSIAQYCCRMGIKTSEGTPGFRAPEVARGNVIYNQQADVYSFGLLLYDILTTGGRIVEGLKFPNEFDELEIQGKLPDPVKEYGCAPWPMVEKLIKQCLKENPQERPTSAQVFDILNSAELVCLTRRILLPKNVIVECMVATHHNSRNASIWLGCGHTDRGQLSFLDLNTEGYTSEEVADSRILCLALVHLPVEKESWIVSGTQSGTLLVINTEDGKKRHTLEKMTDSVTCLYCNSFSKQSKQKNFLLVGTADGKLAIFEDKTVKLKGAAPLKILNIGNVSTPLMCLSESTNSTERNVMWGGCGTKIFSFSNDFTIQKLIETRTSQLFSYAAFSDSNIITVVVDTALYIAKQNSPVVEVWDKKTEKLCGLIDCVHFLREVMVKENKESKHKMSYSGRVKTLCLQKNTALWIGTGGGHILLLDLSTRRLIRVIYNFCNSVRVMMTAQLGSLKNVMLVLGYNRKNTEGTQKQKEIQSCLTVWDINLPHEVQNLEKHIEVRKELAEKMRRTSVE

In one assay the target is GST tagged truncated human mutant G2019S LRRK2 (Homo sapiens (Human), UniProt Q5S007, G2019S). Description: LRRK2 Km ATP LanthaScreen Assay. Type of assay: biochemical. The conditions noted are these: G2019S LRRK2, 134 μM ATP (Km ATP), mean values. As for the experimental part:
General Experimental Information: • Unless otherwise noted, all reactions are magnetically stirred. Unless otherwise noted, when diethyl ether is used in the experiments described below, it is Fisher ACS certified material and is stabilized with BHT. Unless otherwise noted, “concentrated” and/or “solvent removed under reduced pressure” means evaporating the solvent from a solution or mixture using a rotary evaporator or vacuum pump. Unless otherwise noted, flash chromatography is carried out on a Teledyne Isco (Lincoln, NE), Analogix (Burlington, WI), or Biotage (Stockholm, SWE) automated chromatography system using a commercially available cartridge as the column. Columns may be purchased from Teledyne Isco, Analogix, Biotage, Varian (Palo Alto, CA), or Supelco (Bellefonte, PA) and are usually filled with silica gel as the stationary phase. Reverse phase prep-HPLC conditions, where used, can be found at the end of each experimental section. Aqueous solutions were concentrated on a Genevac (Ipswich, ENG) or by freeze-drying/lyophilization. Unless otherwise noted, all LRRK2 pIC50 data presented in tables refers to the LRRK2 G2019S Km ATP LanthaScreen™ assay (Life Technologies Corp., Carlsbad, CA) that is described in the Biological Assay section.
The pIC50 values reported herein were measured as follows.
Biological Assay: LRRK2 Km ATP LanthaScreen™ Assay
Compound potency against LRRK2 kinase activity was determined using LanthaScreen™ technology from Life Technologies Corporation (Carlsbad, CA) using a GST20 tagged truncated human mutant G2019S LRRK2 in the presence of the fluorescein-labeled peptide substrate LRRKtide® (LRRK2 phosphorylated ezrin/radixin/moesin (ERM)), also from Life Technologies. The data presented for the Km ATP LanthaScreen™ Assay represents mean IC50 values based on several test results and may have reasonable deviations depending on the specific conditions and reagents used. Km is the Michaelis constant of an enzyme and is defined as the concentration of native substrate (ATP for a kinase) which permits the enzyme to achieve half Vmax (Vmax=rate of reaction when the enzyme is saturated with substrate). IC50 (half-maximal inhibitory concentration) represents the concentration of inhibitor required to inhibit LRRK2 kinase activity by 50%. Assays were performed in the presence of 134 μM ATP (Km ATP). Upon completion, the assay was stopped, and phosphorylated substrate detected with a terbium (Tb)-labeled anti-pERM antibody (cat. no. PV4898). The compound dose response was prepared by diluting a 10 mM stock of compound to a maximum concentration of 9.99 μM in 100% DMSO, followed by custom fold serial dilution in DMSO nine times. 20 nL of each dilution was spotted via a Labcyte Echo onto a 384-well black-sided plate (Corning 3575) followed by 15 μl of a 1.25 nM enzyme solution in 1× assay buffer (50 mM Tris pH 8.5, 10 mM MgCl2, 0.01% Brij-35, 1 mM EGTA, 2 mM dithiothreitol, 0.05 mM sodium orthovanadate). Following a 15-minute incubation period at RT, the kinase reaction was started with the addition of 5 μl of 400 nM fluorescein-labeled LRRKtide® (LRRK2 phosphorylated ezrin/radixin/moesin (ERM)) peptide substrate and 134 μM ATP solution in 1× assay buffer. The reaction was allowed to progress at ambient temperature for 90 minutes. The reaction was then stopped by the addition of 20 μl of TR-FRET Dilution Buffer (Life Technologies, Carlsbad, CA) containing 2 nM Tb-labeled anti-phospho LRRKtide® (LRRK2 phosphorylated ezrin/radixin/moesin (ERM)) antibody and 10 mM EDTA (Life Technologies, Carlsbad, CA). After an incubation period of 1 h at RT, the plate was read on an EnVision® multimode plate reader (Perkin Elmer, Waltham, MA) with an excitation wavelength of 337 nm (Laser) and a reading emission at both 520 and 495 nm. Compound IC50 values were interpolated from nonlinear regression best-fits of the log of the final compound concentration, plotted as a function of the 520/495-nm emission ratio using activity base “Abase”). […]
For `Cc1c(Nc2ncc3cc(Cl)c(C4CCN([C@H]5COC[C@H]5O)CC4)cc3n2)cnn1C12CC(C1)C2` (single isomer, unassigned) [Ex-2.27, (3S,4S) or (3R,4R) 4-[4-(2-{[1-(bicyclo[1.1.1]pentan-1-yl)-5-methyl-1H-pyrazol-4-yl]amino}-6-chloroquinazolin-7-yl)piperidin-1-yl]oxolan-3-ol], the “LRRK2 pIC50” value turned out to be 8.87.

As to `Cc1c(Nc2ncc3cc(Cl)c(C4CCN([C@@H]5COC[C@@H]5O)CC4)cc3n2)cnn1C12CC(C1)C2` (single isomer, unassigned) [Ex-2.28, (3S,4S) or (3R,4R) 4-[4-(2-{[1-(bicyclo[1.1.1]pentan-1-yl)-5-methyl-1H-pyrazol-4-yl]amino}-6-chloroquinazolin-7-yl)piperidin-1-yl]oxolan-3-ol], the “LRRK2 pIC50” value is recorded as greater than 9.20.

On to `Cc1cc2cnc(Nc3cnn(C4CC4)c3Cl)nc2cc1C1CCN([C@]2(C)COC[C@@H]2O)CC1` (single isomer, unassigned) [Ex-2.37, (3S,4S) or (3R,4R) 4-(4-{2-[(5-chloro-1-cyclopropyl-1H-pyrazol-4-yl)amino]-6-methylquinazolin-7-yl}piperidin-1-yl)-4-methyloxolan-3-ol], for which the “LRRK2 pIC50” value was found to be 7.78.

For `Cc1cc2cnc(Nc3cnn(C4CC4)c3C)nc2cc1C1CCN([C@@]2(C)COC[C@H]2O)CC1` (single isomer, unassigned) [Ex-2.38, (3S,4S) or (3R,4R) 4-(4-{2-[(1-cyclopropyl-5-methyl-1H-pyrazol-4-yl)amino]-6-methylquinazolin-7-yl}piperidin-1-yl)-4-methyloxolan-3-ol], the “LRRK2 pIC50” value is given as greater than 9.20.

For `Cc1cc2cnc(Nc3cnn(C4CC4)c3C)nc2cc1C1CCN([C@]2(C)COC[C@@H]2O)CC1` (single isomer, unassigned) [Ex-2.39, (3S,4S) or (3R,4R) 4-(4-{2-[(1-cyclopropyl-5-methyl-1H-pyrazol-4-yl)amino]-6-methylquinazolin-7-yl}piperidin-1-yl)-4-methyloxolan-3-ol], the “LRRK2 pIC50” value came to 8.09.

For the molecule `OC1COCC1n1ncc(Nc2ncc3cc(Cl)c(C4CCN(C5COC5)CC4)cc3n2)c1Cl` (single isomer, unassigned) [Ex-2.47, (3S,4S) or (3R,4R) or (3S,4R) or (3R,4S) 4-[5-chloro-4-({6-chloro-7-[1-(oxetan-3-yl)piperidin-4-yl]quinazolin-2-yl}amino)-1H-pyrazol-1-yl]oxolan-3-ol], the “LRRK2 pIC50” value is given as 9.11.

`Cc1c(Nc2ncc3cc(Cl)c(C4CCN(C5COCC5C#N)CC4)cc3n2)cnn1C1CC1` (single isomer, unassigned) [Ex-2.49, (3S,4S) or (3R,4R) or (3S,4R) or (3R,4S) 4-(4-{6-chloro-2-[(1-cyclopropyl-5-methyl-1H-pyrazol-4-yl)amino]quinazolin-7-yl}piperidin-1-yl)oxolane-3-carbonitrile]: the “LRRK2 pIC50” value is on record as 8.88.

Consider `Cc1c(Nc2ncc3cc(Cl)c(C4CCN(C5COCC5C#N)CC4)cc3n2)cnn1C1CC1` (single isomer, unassigned) [Ex-2.50, (3S,4S) or (3R,4R) or (3S,4R) or (3R,4S) 4-(4-{6-chloro-2-[(1-cyclopropyl-5-methyl-1H-pyrazol-4-yl)amino]quinazolin-7-yl}piperidin-1-yl)oxolane-3-carbonitrile], for which the “LRRK2 pIC50” value is 9.13.

`Cc1cc(Nc2ncc3cc(Cl)c(C4CCN([C@H]5COC[C@H]5O)CC4)cc3n2)sn1` (single isomer, unassigned) [Ex-2.55, (3S,4S) or (3R,4R)4-(4-{6-chloro-2-[(3-methyl-l,2-thiazol-5-yl)amino]quinazolin-7-yl}piperidin-1-yl)oxolan-3-ol]: the “LRRK2 pIC50” value was greater than 9.20.

The assay is the same for the next values; noted with them: G2019S LRRK2, 134 μM ATP (Km ATP), mean values; read-out: LRRK2 pIC50 (converted).
As to `Cc1c(Nc2ncc3cc(Cl)c(C4CCN(C5COC5)CC4)cc3n2)cnn1C1CCOC1` (single isomer, unassigned) [Ex-2.23, (S) or (R) 6-chloro-N-[5-methyl-1-(oxolan-3-yl)-1H-pyrazol-4-yl]-7-[1-(oxetan-3-yl)piperidin-4-yl]quinazolin-2-amine], the IC50 was 1.15 nM.

For `Cc1c(Nc2ncc3cc(Cl)c(C4CCN(C5COC5)CC4)cc3n2)cnn1C1CCOC1` (single isomer, unassigned) [Ex-2.24, (S) or (R) 6-chloro-N-[5-methyl-1-(oxolan-3-yl)-1H-pyrazol-4-yl]-7-[1-(oxetan-3-yl)piperidin-4-yl]quinazolin-2-amine], the IC50 was 0.741 nM.

With `Cc1c(Nc2ncc3cc(Cl)c(C4CCN(C5(C)COC5)CC4)cc3n2)cnn1C1CCOC1` (single isomer, unassigned) [Ex-2.25, (S) or (R) 6-chloro-7-[1-(3-methyloxetan-3-yl)piperidin-4-yl]-N-[5-methyl-1-(oxolan-3-yl)-1H-pyrazol-4-yl]quinazolin-2-amine], the IC50 is 0.891 nM.

For `Cc1c(Nc2ncc3cc(Cl)c(C4CCN(C5(C)COC5)CC4)cc3n2)cnn1C1CCOC1` (single isomer, unassigned) [Ex-2.26, (S) or (R) 6-chloro-7-[1-(3-methyloxetan-3-yl)piperidin-4-yl]-N-[5-methyl-1-(oxolan-3-yl)-1H-pyrazol-4-yl]quinazolin-2-amine], the IC50 is less than 0.631 nM.

For `Cc1c(Nc2ncc3cc(Cl)c(C4CCN(C5(C)COC5)CC4)cc3n2)cnn1C1CC1(F)F` (single isomer, unassigned) [Ex-2.29, (S) or (R) 6-chloro-N-[1-(2,2-difluorocyclopropyl)-5-methyl-1H-pyrazol-4-yl]-7-[1-(3-methyloxetan-3-yl)piperidin-4-yl]quinazolin-2-amine], the IC50 was 1.66 nM.

In the case of `Cc1c(Nc2ncc3cc(Cl)c(C4CCN(C5(C)COC5)CC4)cc3n2)cnn1C1CC1(F)F` (single isomer, unassigned) [Ex-2.30, (S) or (R) 6-chloro-N-[1-(2,2-difluorocyclopropyl)-5-methyl-1H-pyrazol-4-yl]-7-[1-(3-methyloxetan-3-yl)piperidin-4-yl]quinazolin-2-amine], the IC50 is 0.646 nM.

As for `Cc1cc2cnc(Nc3cnn(C4CC4(F)F)c3Cl)nc2cc1C1CCN([C@H]2COC[C@H]2O)CC1` (single isomer, unassigned) [Ex-2.33, (R)(3S,4S) or (R)(3R,4R) or (S)(3S,4S) or (S)(3R,4R) 4-[4-(2-{[5-chloro-1-(2,2-difluorocyclopropyl)-1H-pyrazol-4-yl]amino}-6-methylquinazolin-7-yl)piperidin-1-yl]oxolan-3-ol], the IC50 is less than 0.631 nM.

In the case of `C[C@]1(N2CCC(c3cc4nc(Nc5cnn(C67CC(C6)C7)c5)ncc4cc3Cl)CC2)COC[C@H]1O` (single isomer, unassigned) [Ex-2.35, (3S,4S) or (3R,4R) 4-[4-(2-{[1-(bicyclo[1.1.1]pentan-1-yl)-1H-pyrazol-4-yl]amino}-6-chloroquinazolin-7-yl)piperidin-1-yl]-4-methyloxolan-3-ol], the IC50 is 3.89 nM.

Consider `Cc1cc2cnc(Nc3cnn(C4CC4)c3Cl)nc2cc1C1CCN([C@@]2(C)COC[C@H]2O)CC1` (single isomer, unassigned) [Ex-2.36, (3S,4S) or (3R,4R) 4-(4-{2-[(5-chloro-1-cyclopropyl-1H-pyrazol-4-yl)amino]-6-methylquinazolin-7-yl}piperidin-1-yl)-4-methyloxolan-3-ol], for which the IC50 is less than 0.631 nM.
